The values below are quoted from earlier work in article PMC12652113, “Fluorescent Albumin-Binding N-Propylbenzene Indolenine-Based Squaraines as Potential Candidates for Prostate Cancer Photodynamic Therapy Photosensitizers” (International Journal of Molecular Sciences, 2025).

For this series the following is noted: in dimethylformamide; reference value used for the calculation; cited from earlier work.

As for `[Zn+2].c1ccc2c(c1)-c1nc-2nc2[n-]c(nc3nc([n-]c4nc(n1)-c1ccccc1-4)-c1ccccc1-3)c1ccccc21` [Zinc phthalocyanine, zinc phthalocyanine], the “fluorescence quantum yield (ΦF) of the reference standard” value was 0.17.
